Key:
HF-fed C57/BL6 mice [1] = assay: Metabolic studies (body weight, GTT) in HF-fed wild type mice, 4 months; format: in vivo, mouse; settings: obese HF-fed mice, 3.0 mg/100 ml drinking water
Description: Mice, diet, and drug treatment. Dietary Obesity Studies: Wild type (wt) male C57/BL6 male mice were maintained on either a standard laboratory chow-fed diet (Con) with 13% kcal fat, (diet #5053, Lab Diet, Inc, St. Louis, Mo.) or a high fat, western style diet (HFD) with 45% kcals from fat, (diet #58126, Lab Diet, Inc., St. Louis, Mo.) for 4 months. […]
Metabolic Measurements-Glucose tolerance was performed using an intraperitoneal glucose tolerance test (GTT) as previously described (Trasino et al., Vitamin A Deficiency Causes Hyperglycemia and Loss of Pancreatic β-Cell Mass, J Biol Chem. 2014 Dec. 1. pii: jbc.M114.616763). […] Tail vein blood glucose was measured at 20, 40, 60 and 120 minutes after injection using a FreeStyle Lite Blood Glucose Monitoring System (Abbott Diabetes Care, Inc. Alameda, Calif.). To determine insulin secretion responses to glucose, serum fractions were isolated between 0-60 minutes post glucose injections and insulin concentrations were measured using an Ultrasensitive Insulin ELISA Kit (Alpco, Inc. Salem, N.H.). Random blood glucose measurements were taken from tail veins of 4 mice per group at 2-3 random time points daily Means are expressed as±standard error of the mean (S.E.M) and P-values were calculated using one-way analysis of variance followed by Bonferroni post-hoc analysis.

RARβ2 = target: T1, RARβ2 (Homo sapiens, UniProt P10826); settings: as described in Lund et al. 2005; cited from earlier work
T1 sequence (P10826 1-448 isoform P10826-2): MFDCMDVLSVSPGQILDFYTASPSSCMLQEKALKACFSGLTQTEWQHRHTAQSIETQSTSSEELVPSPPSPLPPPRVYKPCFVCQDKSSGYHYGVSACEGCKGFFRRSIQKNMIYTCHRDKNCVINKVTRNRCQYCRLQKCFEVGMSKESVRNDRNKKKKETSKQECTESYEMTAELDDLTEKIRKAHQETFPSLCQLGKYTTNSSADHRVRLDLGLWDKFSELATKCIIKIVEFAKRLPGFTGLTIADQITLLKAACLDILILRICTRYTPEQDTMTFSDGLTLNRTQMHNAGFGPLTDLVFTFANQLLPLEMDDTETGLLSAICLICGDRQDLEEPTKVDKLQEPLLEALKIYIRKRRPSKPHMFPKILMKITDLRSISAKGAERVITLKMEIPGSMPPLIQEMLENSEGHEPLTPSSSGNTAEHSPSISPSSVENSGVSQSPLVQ

HF-fed C57/BL6 mice [2] = assay: HF-fed mice treated 3 months: body weight, GTT, fasting glucose (Example 22); format: in vivo, mouse
Description: METHODS. Preparation of RARβ agonists solution. AC261066 and AC55649 were dissolved in dimethyl sulfoxide (DMSO) at the concentration of 3.0 mg/ml and diluted in the drinking water for mice to the final concentration of 3.0-mg/100 ml. Mice, diet, and drug treatments. Wt male C57/BL6 male mice were maintained on either a standard laboratory chow-fed diet (Con) with 13% kcal fat, (diet #5053, Lab Diet, Inc, St. Louis, Mo., [n=4]) or a high fat, western style diet (HFD) with 45% kcals from fat, (diet #58126, Lab Diet, Inc., St. Louis, Mo.) for 3 months. Two weeks after the start of the HFD treatment, the HFD group was further split into 3 groups for 3 months: i) HFD and drinking water containing 1% DMSO (n=5); ii) high fat diet (HFD) and drinking water containing 3.0 mg/100 ml AC261066, a specific RARβ agonist (n=5) or iii) HFD and drinking water containing 3.0 mg/100 ml AC55649, a specific RARβ agonist (n=4). After 3 months the mice were tested for glucose intolerance with an intra-peritoneal glucose tolerance test (GTT). Mice were then sacrificed by cervical dislocation. Blood and various tissue samples were harvested.
Glucose Tolerance Test (GTT). Glucose tolerance was performed using an intraperitoneal glucose tolerance test (GTT). Mice were fasted overnight (˜16 hrs) followed by intra-peritoneal injections (n=3-5 per group) of 50% glucose in PBS at 2.0 g of glucose/kg of body weight. Tail vein blood was collected at 15, 30, 45, 60, and 120 minutes post-injection for glucose measurements using a FreeStyle Lite Blood Glucose Monitoring System (Abbott Diabetes Care, Inc. Alameda, Calif.). Random and fasting blood glucose measurements were taken from tail veins of 4 mice per group at 2-3 random time points daily or just prior to GTT. Means are expressed as ±standard error of the mean (S.E.M) and P-values were calculated using one-way analysis of variance followed by Bonferroni post-hoc analysis. Grubbs' maximum normal residual test was used for detection of one or more outliers.

Ob/Ob and Db/Db mice = assay: Metabolic studies (body weight, GTT, insulin secretion, ITT) in Ob/Ob and Db/Db mice, 8 weeks; format: in vivo, mouse; settings: genetically obese and diabetic Ob/Ob and Db/Db mice

CCCCCCCCc1ccc(-c2ccc(C(=O)O)cc2)cc1 [AC55649, 4′-Octyl-[1,1′-biphenyl]-4-carboxylic acid]
body weights (HF-fed C57/BL6 mice [1]): significant reductions | isoform selectivity for the human RARβ2 receptors (RARβ2): highly isoform-selective agonists | glucose tolerance and area under the curve glucose (HF-fed C57/BL6 mice [2]): improved | overnight fasting glucose levels (HF-fed C57/BL6 mice [2]): significant reductions | decrease in body weights compared to HF-fed mice (HF-fed C57/BL6 mice [2]; 3.0 mg/100 ml drinking water): ~10% | body weights (Ob/Ob and Db/Db mice): significant reductions

— patent US20220304945A1, “METHODS OF TREATING METABOLIC SYNDROME RELATED CONDITIONS USING RETINOIC ACID RECEPTOR AGONISTS” (Cornell University, priority 2014, published 2022)
